{"source": "paper PMC3197600", "about": "(PLoS Pathogens, 2011)", "origin": "cited, not measured here", "tested_on": "oseltamivir-resistant His274Tyr H1N1 infection", "conditions": "human, in vivo; cited from earlier work"}
{"smiles": "[H]/N=C(\\N)N[C@H]1C=C(C(=O)O)O[C@@H]([C@H](OC)[C@H](O)COC(=O)CCCCCCC)[C@@H]1NC(C)=O", "note": "[CS-8958, laninamivir octanoate]", "values": [{"measurement": "effectiveness compared with oseltamivir", "result": "not significantly better than oseltamivir"}]}
